According to patent US6552208B1, “Fractionation process” (Karlshamns AB, priority 1998, dated 2003):

System: Normal human dermal fibroblasts
Experiment: UV radiation test in vitro, UV-B
Format: cell-based
Settings: fibroblasts exposed to test substance 48 hours before UV irradiation; UV dose inducing 50% of cell death
Method: The fractionated low-erucic rapeseed oil of Example 1, the canola oil fraction, was tested in vitro for its ability to decrease the damage to cells exposed to free radicals generated by exposure to UV radiation. Normal human dermal fibroblasts were exposed to the test substance at different concentrations 48 hours before UV irradiation. DL-α-tocopheryl acetate was used as a positive control in the study. The UV dose inducing 50% of cell death was determined after the treatment by exposing the cell cultures to UV-A and UV-B radiation at different intensities.

CC(=O)Oc1c(C)c(C)c2c(c1C)CC[C@@](C)(CCC[C@H](C)CCC[C@H](C)CCCC(C)C)O2 (racemic) [DL-α-tocopheryl acetate]
protection against UV-B radiation: neither the fractionated rapeseed oil of Example 1 or the DL-α-tocopheryl acetate gave any protection
